According to publication PMC4604124, “In Vitro Characterization of the Pharmacological Properties of the Anti-Cancer Chelator, Bp4eT, and Its Phase I Metabolites” (PLoS ONE, 2015):
“And” between values parts separate entries of the source, which are not always exact repeats. Equal entries are not always repeated. Where two headings read alike, the source gives them in different places.

Legend:
MCF-7 cells [1] = assay: Mitochondrial morphology, MitoTracker Green FM; format: cell-based, human; conditions: 10 or 100 nM, 72 h
Experimental: (§1) Markers used to assess autophagy/apoptosis/necrosis in MCF-7 cells and changes of lysosomal and mitochondrial morphology were observed using an Eclipse Ti inverted epifluorescence microscope (Nikon, Tokyo, Japan), that was equipped with a cooled digital camera Zyla 5.5 sCMOS (Andor Technology, Belfast, UK), and NIS-Elements C 4.1 software (Laboratory Imaging, Prague, Czech Republic). The MCF-7 cells were seeded in 6-well plates with cover slips on the bottom at a density of 150,000 cells/well and incubated as described above in the presence or absence of 10 or 100 nM Bp4eT.
To determine the effect of Bp4eT on mitochondrial morphology, the cells were incubated with MitoTracker® Green FM (0.25 μM; λex = 490 nm; λem = 516 nm; Molecular Probes) for 10 min/37°C. The cells were then washed with fresh medium and the images captured using the microscope described above.

[2] = system: cancer cells (HL-60, MCF-7, HCT116, A549) and non-cancerous cells (H9c2, 3T3); assay: MTT cytotoxicity assay, summary over the cell line panel; format: cell-based
Experimental: (§2) For cytotoxicity experiments, cancer cells were seeded at a density of 5,000 (MCF-7), 10,000 (HL-60) or 2,000 cells/well (HCT116 and A549) in 96-well plates (TPP) for 24 h/37°C prior to the addition of examined agents. The non-cancerous cells, 3T3 and H9c2 cells, were cultured for 24 h/37°C in 96-well plates at a density of 10,000 cells/well, the medium was then changed to serum- and pyruvate-free DMEM (Sigma-Aldrich) and incubated with the cells for another 24 h/37°C. The cytotoxic effects of Bp4eT and its metabolites were studied at different concentrations after a 72 h/37°C incubation. In order to aid the dissolution of the lipophilic ligands, 0.1% dimethyl sulfoxide (v/v) (DMSO; Sigma-Aldrich) was present in the culture medium of all groups. At this concentration, DMSO had no effect on cellular proliferation or viability.
(§3) The viability of cells were determined using an MTT assay (Sigma-Aldrich) according to previously established methods. The optical density of soluble MTT was measured at λ = 570 nm, subtracting the λ = 690 nm background using a Tecan Infinite 200M plate reader (Tecan Group, Männedorf, Switzerland). The viability or proliferation of experimental groups was expressed as a percentage of the untreated controls (100%).
(§4) SigmaStat for Windows 3.5 (Systat Software, San Jose, CA, USA) statistical software package was utilized to analyze results. The data are expressed as the mean ± SD of a given number of experiments. Statistical significance was determined using a one-way ANOVA with a Bonferroni post-hoc test or Student’s t-test. The results were considered to be statistically significant when p < 0.05. The IC50 values were calculated using CalcuSyn 2.0 software (Biosoft, Cambridge, UK). Cell cycle analysis was evaluated using MultiCycle AV Software (Phoenix Flow Systems, San Diego, CA, USA).

LC3-II = assay: Western blot and densitometry of LC3-I/II (autophagy); format: cell-based, human; conditions: for densitometry WB, relative to NT = 1: single blot
Description: Established protocols were used to prepare cell lysates and perform immunoblot analysis. Primary antibodies used include: rabbit LC3 (Cat. #: MBPM036; 1:2,000) from Abacus (Brisbane, Australia) and mouse β-actin (Cat. #: A1978, 1:10,000) from Sigma-Aldrich. The following secondary antibodies were utilized: horseradish peroxidase (HRP)-conjugated anti-rabbit (Cat. #: A6154, […]) and anti-mouse (Cat. #: A4416, 1:10,000) antibodies from Sigma-Aldrich. To ensure equal loading of proteins, membranes were probed for β-actin.

[3] = system: MCF-7 human breast adenocarcinoma cells; assay: MTT cytotoxicity assay, MCF-7 cells; format: cell-based; conditions: for IC50: MTT
Experimental: as §2, §3, §4

MCF-7 cells [4] = assay: Epifluorescence microscopy, triple staining MDC / annexin V-FITC / propidium iodide; format: cell-based, human; conditions: Bp4eT 10 or 100 nM 72 h, rapamycin 1 nM 30 min
Experimental: as §1
To assess the mechanism of cellular death after incubation with Bp4eT, triple staining with monodansyl cadaverine (MDC; 50 μM; λex = 390 nm; λem = 455 nm; Sigma-Aldrich), annexin V-FITC (5 μL/mL; λex = 495 nm; λem = 519 nm; Invitrogen, Carlsbad, CA, USA), and propidium iodide (5 μg/mL; λex = 560 nm; λem = 630 nm) was used. MDC is a marker of autophagosomes and lysosomes and results in blue fluorescence. As a positive control for autophagy, MCF-7 cells were incubated with 1 nM rapamycin (Sigma-Aldrich) for 30 min/37°C, which is an established inducer of autophagy. Annexin V has high affinity to phosphatidylserine, which is translocated to the surface of both early- and late-stage apoptotic cells. […]

[5] = Supplementary Fig 2, 5uM (5M [sic] for Bp4eT)
[6] = Supplementary Fig 2, Baf+, 10nM
[7] = Supplementary Fig 2, Baf+, 100nM
[8] = Supplementary Fig 2, Baf+, 5uM (5M [sic] for Bp4eT)

## CCNC(=S)NN=C(c1ccccc1)c1ccccn1 [Bp4eT, 2-benzoylpyridine 4-ethyl-3-thiosemicarbazone]
MCF-7 cells [1]
  Mitochondrial morphology: more swollen and enlarged
[2]; HL-60, MCF-7 and HCT116 cells, 72 h, read-out: IC50, range over cell lines
  IC50: 3 to 15 nM
[2]; towards HL-60, MCF-7 and HCT116 cancer cells
  Therapeutic indices, range: 34.9–436.3
LC3-II; 24 h/37°C, MCF-7, agent at all concentrations (10 nM– 5 μM), Baf A1 100 nM
  LC3II expression with Baf A1 relative to Baf A1 and control: did not lead to a significant (p > 0.05) increase
LC3-II; 72 h/37°C, MCF-7, Baf A1 100 nM, Bp4eT 10 and 100 nM, Dp44mT 100 nM
  LC3-II levels upon co-incubation with Baf A1, compared to Baf A1 alone: significant (p < 0.001–0.05) suppression
LC3-II; Fig 7E, 10nM
  densitometry WB, relative to NT = 1, Average: 6.247
  densitometry WB, relative to NT = 1: 4.981 and 5.294 and 8.4664
LC3-II; Fig 7E, 100nM
  densitometry WB, relative to NT = 1, Average: 6.003
LC3-II; Supplementary Fig 2, 10nM
  densitometry WB, relative to NT = 1, Average: 1.7596
LC3-II; Supplementary Fig 2, 100nM
  densitometry WB, relative to NT = 1, Average: 0.8507
LC3-II; [5]
  densitometry WB, relative to NT = 1, Average: 0.7357
  densitometry WB, relative to NT = 1: 0.9358 and 0.7729 and 0.4982
LC3-II; [6]
  densitometry WB, relative to NT = 1, Average: 143.432
  densitometry WB, relative to NT = 1: 159.536 and 131.647 and 139.114
LC3-II; [7]
  densitometry WB, relative to NT = 1, Average: 74.7567
  densitometry WB, relative to NT = 1: 63.4737 and 60.9216 and 99.8746
LC3-II; [8]
  densitometry WB, relative to NT = 1, Average: 159.207
  densitometry WB, relative to NT = 1: 188.04 and 116.854 and 172.727
LC3-II; agent alone, 72 h/37°C, MCF-7, Bp4eT 10 and 100 nM, Dp44mT 100 nM, Baf A1 100 nM
  LC3-II levels compared to the control: slight, but significant (p < 0.05) increase
[3]; 0.1 μM, 72 h
  MCF-7 proliferation, % of the control: 27%
[3]; 3T3/MCF-7
  Therapeutic index, IC50 non-cancerous cells / IC50 neoplastic cells: 87.3
[3]; H9c2/MCF-7
  Therapeutic index, IC50 non-cancerous cells / IC50 neoplastic cells: 34.9
[3]; Homo sapiens, MCF7, 72 h, MCF-7, 72 h/37°C, mean ± SD, n ≥ 4, read-out: IC50
  IC50: 15 ± 2 nM
[3]; Homo sapiens, MCF7, MCF-7, 5 000 b/j, průměr (mean), read-out: IC50 měřené
  IC50: 14.6 nM
[3]; Homo sapiens, MCF7, MCF-7, 5 000 b/j, single experiment (date), read-out: IC50 měřené
  IC50: 14.6 nM
[3]; MCF-7, 5 000 b/j, 0.1 nM, průměr (mean)
  MTT, relative to control (0 = 100): 96.38
[3]; MCF-7, 5 000 b/j, 0.1 nM, single experiment (date)
  MTT, relative to control (0 = 100): 88.7924 and 103.938 and 95.2002 and 101.937 and 92.0538
[3]; MCF-7, 5 000 b/j, 0.3 nM, průměr (mean)
  MTT, relative to control (0 = 100): 88.87
[3]; MCF-7, 5 000 b/j, 0.3 nM, single experiment (date)
  MTT, relative to control (0 = 100): 99.7305 and 86.2923 and 86.9644 and 82.4877
[3]; MCF-7, 5 000 b/j, 1 nM, průměr (mean)
  MTT, relative to control (0 = 100): 87.17
[3]; MCF-7, 5 000 b/j, 1 nM, single experiment (date)
  MTT, relative to control (0 = 100): 87.1761 and 96.2311 and 86.4816 and 83.9319 and 82.0349
[3]; MCF-7, 5 000 b/j, 3 nM, průměr (mean)
  MTT, relative to control (0 = 100): 84.98
[3]; MCF-7, 5 000 b/j, 3 nM, single experiment (date)
  MTT, relative to control (0 = 100): 92.03 and 87.788 and 84.0816 and 76.0316
[3]; MCF-7, 5 000 b/j, 10 nM, průměr (mean)
  MTT, relative to control (0 = 100): 59.89
[3]; MCF-7, 5 000 b/j, 10 nM, single experiment (date)
  MTT, relative to control (0 = 100): 58.817 and 55.8764 and 63.7331 and 67.2949 and 53.713
[3]; MCF-7, 5 000 b/j, 30 nM, průměr (mean)
  MTT, relative to control (0 = 100): 30.78
[3]; MCF-7, 5 000 b/j, 30 nM, single experiment (date)
  MTT, relative to control (0 = 100): 29.4154 and 32.9782 and 31.8134 and 28.9002
[3]; MCF-7, 5 000 b/j, 100 nM, průměr (mean)
  MTT, relative to control (0 = 100): 27.09
[3]; MCF-7, 5 000 b/j, 100 nM, single experiment (date)
  MTT, relative to control (0 = 100): 33.1607 and 22.627 and 26.6274 and 27.398 and 25.6334
[3]; MCF-7, 5 000 b/j, single experiment (date), read-out: IC50 měřené
  IC50: 16.3 nM and 16.2 nM and 11.2 nM
MCF-7 cells [4]
  Staining for autophagy/apoptosis/necrosis (MDC, annexin V-FITC, propidium iodide): dose-dependent increase in the number of green annexin V-stained cell membranes or bodies
